Each structure is given as a SMILES string. Where a SMILES comes first, the peptide text is derived from it. [ ]: non-standard residue; d: D form. hLeu = CC(C)CC[C@H](N)C(=O)O A value given as a limit tells only on which side of the number the result lay.

The target in the test is T1, Interleukin-23 receptor (Homo sapiens, UniProt Q5VWK5).
T1 sequence (Q5VWK5 whole entry): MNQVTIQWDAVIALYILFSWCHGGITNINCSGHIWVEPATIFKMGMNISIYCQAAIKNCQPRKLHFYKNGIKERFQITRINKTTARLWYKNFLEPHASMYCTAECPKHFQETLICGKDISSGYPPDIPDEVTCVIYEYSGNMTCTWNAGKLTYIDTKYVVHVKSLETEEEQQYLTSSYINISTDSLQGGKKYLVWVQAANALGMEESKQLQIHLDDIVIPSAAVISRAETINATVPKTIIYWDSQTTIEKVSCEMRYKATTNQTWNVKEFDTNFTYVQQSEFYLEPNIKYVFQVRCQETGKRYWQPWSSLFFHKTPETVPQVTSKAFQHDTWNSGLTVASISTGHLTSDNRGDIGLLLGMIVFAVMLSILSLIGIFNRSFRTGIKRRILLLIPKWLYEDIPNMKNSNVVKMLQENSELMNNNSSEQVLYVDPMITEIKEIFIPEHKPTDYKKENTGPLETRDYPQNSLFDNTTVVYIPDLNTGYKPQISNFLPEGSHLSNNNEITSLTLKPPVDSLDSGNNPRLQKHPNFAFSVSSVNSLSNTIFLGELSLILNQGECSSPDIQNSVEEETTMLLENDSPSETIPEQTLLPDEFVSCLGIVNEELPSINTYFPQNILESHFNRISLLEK
As to the kind of experiment: Inhibition of interleukin-23 binding to human interleukin-23 receptor incubated for 2 hrs by competitive binding ELISA.
Regarding `CC(=O)N[C@@H](CS)C(=O)N[C@@H](CCC(N)=O)C(=O)N[C@H](C(=O)N[C@@H](Cc1c[nH]c2ccccc12)C(=O)N[C@@H](CCC(N)=O)C(=O)N[C@@H](CS)C(=O)N[C@H](Cc1ccc(O)cc1)C(=O)N[C@@H](Cc1c[nH]c2ccccc12)C(=O)N[C@@H](CCC(C)C)C(=O)N[C@@H](CCC(=O)O)C(=O)N[C@@H](CC(N)=O)C(=O)NCC(N)=O)[C@@H](C)O`, the IC50 was > 30000 nM. For `CCC(CC)(NC(=O)[C@H](CCCN)NC(=O)[C@H](Cc1c[nH]c2ccccc12)NC(=O)[C@H](Cc1ccc(O)cc1)NC(=O)[C@H](CS)NC(=O)[C@@H](NC(=O)[C@H](Cc1c[nH]c2ccccc12)NC(=O)[C@H](CC(=O)O)NC(=O)[C@H](C)NC(=O)[C@H](CS)NC(C)=O)C(C)C)C(=O)N[C@@H](Cc1ccccc1)C(=O)NCC(=O)NCCOCC(=O)N[C@H](CCCCN)C(N)=O`, the IC50 was found to be 6000 nM. In turn, `CC(=O)N[C@@H](CS)C(=O)N[C@@H](CCC(N)=O)C(=O)N[C@H](C(=O)N[C@@H](Cc1c[nH]c2ccccc12)C(=O)N[C@@H](CCC(N)=O)C(=O)N[C@@H](CS)C(=O)N[C@@H](Cc1ccc(O)cc1)C(=O)N[C@@H](Cc1c[nH]c2ccccc12)C(=O)N[C@@H](CCC(C)C)C(=O)N[C@@H](CCC(=O)O)C(=O)N[C@@H](CC(N)=O)C(=O)NCC(=O)N1CCC[C@H]1C(N)=O)[C@@H](C)O` gave an IC50 of 97 to 239 nM. Next, `CC(=O)N[C@@H](CS)C(=O)N[C@@H](CCCNC(=N)N)C(=O)N[C@@H](CC(=O)O)C(=O)N[C@@H](Cc1c[nH]c2ccccc12)C(=O)N[C@@H](CCC(N)=O)C(=O)N[C@@H](CS)C(=O)N[C@@H](Cc1ccc(O)cc1)C(=O)N[C@@H](Cc1c[nH]c2ccccc12)C(=O)N[C@H](CCCNC(=N)N)C(=O)N[C@H](CCCCN)C(=O)N[C@@H](Cc1ccccc1)C(=O)NCC(=O)NCCOCCC(=O)N[C@H](CCCCN)C(N)=O`: > 1000 nM. Next, `CC(C)[C@H](NC(=O)[C@H](Cc1c[nH]c2ccccc12)NC(=O)[C@H](CC(=O)O)NC(=O)[C@H](C)NC(=O)[C@@H](N)CS)C(=O)N[C@@H](CS)C(=O)N[C@@H](Cc1ccc(O)cc1)C(=O)N1Cc2ccccc2C[C@H]1C(=O)N[C@@H](Cc1cnc[nH]1)C(=O)N[C@H](C(=O)N[C@@H](Cc1ccccc1)C(=O)NCC(N)=O)[C@@H](C)O`: > 1000 nM; `CC(C)[C@H](NC(=O)[C@H](Cc1c[nH]c2ccccc12)NC(=O)[C@H](CC(=O)O)NC(=O)CN(C)C(=O)[C@@H](N)CS)C(=O)N[C@@H](CS)C(=O)N[C@@H](Cc1ccc(O)cc1)C(=O)N[C@@H](Cc1cccc2ccccc12)C(=O)N[C@@H](Cc1cnc[nH]1)C(=O)N[C@H](C(=O)N[C@@H](Cc1ccccc1)C(=O)O)[C@@H](C)O`: > 1000 nM.

As for `CCCCCCCCCCCCCCCC(=O)NCCCC[C@H](NC(=O)[C@H](CCCN)NC(=O)[C@H](Cc1c[nH]c2ccccc12)NC(=O)[C@H](Cc1ccc(O)cc1)NC(=O)[C@H](CS)NC(=O)[C@H](CCC(N)=O)NC(=O)[C@H](Cc1c[nH]c2ccccc12)NC(=O)[C@@H](NC(=O)[C@H](CCC(N)=O)NC(=O)[C@H](CS)NC(C)=O)[C@@H](C)O)C(=O)N[C@@H](CC(N)=O)C(=O)NCC(N)=O`, the IC50 was > 6000 nM. The figure for `CC(=O)N[C@@H](CS)C(=O)N[C@@H](C)C(=O)N[C@@H](CC(=O)O)C(=O)N[C@@H](Cc1c[nH]c2ccccc12)C(=O)N[C@@H](CCCCN)C(=O)N[C@@H](CS)C(=O)N[C@@H](Cc1ccc(O)cc1)C(=O)N[C@@H](Cc1c[nH]c2ccccc12)C(=O)N[C@@H](Cc1cnc[nH]1)C(=O)N[C@H](C(=O)N[C@@H](Cc1ccccc1)C(=O)NCC(=O)O)[C@@H](C)O` is > 1000 nM; for `CC(=O)NCCCC[C@H](NC(=O)[C@](C)(CCCCN)NC(=O)[C@H](Cc1ccc2ccccc2c1)NC(=O)[C@H](Cc1ccc(N)cc1)NC(=O)[C@@H](NC(=O)[C@H](CCC(N)=O)NC(=O)[C@H](Cc1c[nH]c2ccccc12)NC(=O)[C@@H](NC(=O)[C@H](CCC(N)=O)NC(=O)[C@@H](NC(C)=O)C(C)(C)S)[C@@H](C)O)C(C)(C)S)C(=O)N[C@@H](CC(N)=O)C(=O)NCC(N)=O` it is 100 to 1000 nM. Take `CC(=O)N[C@@H](CS)C(=O)N[C@@H](CCC(N)=O)C(=O)N[C@H](C(=O)N[C@@H](Cc1c[nH]c2ccccc12)C(=O)N[C@@H](CCC(N)=O)C(=O)N[C@@H](CS)C(=O)N[C@@H](CCc1ccc(O)cc1)C(=O)N[C@@H](Cc1c[nH]c2ccccc12)C(=O)N[C@@H](CCC(C)C)C(=O)N[C@@H](CCC(=O)O)C(=O)N[C@@H](CC(N)=O)C(=O)NCC(N)=O)[C@@H](C)O`: the IC50 was determined as 6000 nM. The figure for `CC(=O)N[C@@H](CS)C(=O)N[C@@H](C)C(=O)N[C@@H](CC(=O)O)C(=O)N[C@@H](Cc1c[nH]c2ccccc12)C(=O)N[C@H](C(=O)N[C@@H](CS)C(=O)N[C@@H](Cc1ccc(O)cc1)C(=O)N[C@@H](Cc1c[nH]c2ccccc12)C(=O)N[C@@H](Cc1cnc[nH]1)C(=O)N[C@H](C(=O)N[C@@H](Cc1ccccc1)C(=O)NCC(=O)N[C@@H](C)C(=O)N[C@H](CCCCN)C(=O)O)[C@@H](C)O)C(C)C` is < 500 nM; for `CC(=O)N[C@@H](CS)C(=O)N[C@@H](C)C(=O)N[C@@H](CC(=O)O)C(=O)N[C@@H](Cc1c[nH]c2ccccc12)C(=O)N[C@H](C(=O)N[C@@H](CS)C(=O)N[C@@H](Cc1ccc(O)cc1)C(=O)N[C@@H](Cc1c[nH]c2ccccc12)C(=O)N[C@@H](Cc1cnc[nH]1)C(=O)N[C@H](C(=O)N[C@@H](Cc1ccccc1)C(=O)N[C@H](CCCCN)C(=O)O)[C@@H](C)O)C(C)C` it is > 1000 nM. For the compound `CC(C)[C@H](NC(=O)[C@H](Cc1c[nH]c2ccccc12)NC(=O)[C@H](CC(=O)O)NC(=O)[C@H](C)NC(=O)[C@@H](N)CS)C(=O)N[C@@H](CS)C(=O)N[C@@H](Cc1ccc(O)cc1)C(=O)N[C@H](CC(=O)N[C@@H](Cc1cnc[nH]1)C(=O)N[C@H](C(=O)N[C@@H](Cc1ccccc1)C(=O)NCC(N)=O)[C@@H](C)O)Cc1c[nH]c2ccccc12`, the IC50 is > 1000 nM. Regarding `CC(=O)N[C@@H](CS)C(=O)N[C@@H](CCC(N)=O)C(=O)N[C@H](C(=O)N[C@@H](Cc1c[nH]c2ccccc12)C(=O)N[C@@H](CCC(N)=O)C(=O)N[C@@H](CS)C(=O)N[C@@H](Cc1ccc(O)cc1)C(=O)N[C@@H](Cc1c[nH]c2ccccc12)C(=O)N[C@@H](CCCNC(=N)N)C(=O)N[C@@H](CCC(=O)O)C(=O)N[C@@H](CC(N)=O)C(=O)NCC(=O)NCCOCC(=O)N[C@H](CCCCN)C(N)=O)[C@@H](C)O`, the IC50 was < 500 nM. With `CC(=O)N[C@@H](CS)C(=O)N[C@@H](C)C(=O)N[C@@H](CC(=O)O)C(=O)N[C@@H](Cc1c[nH]c2ccccc12)C(=O)N[C@H](C(=O)N[C@@H](CS)C(=O)N[C@@H](Cc1ccc(O)cc1)C(=O)N[C@@H](Cc1ccc(-c2ccccc2)cc1)C(=O)N[C@@H](CCCN)C(=O)N[C@@H](CN)C(=O)N[C@@H](Cc1ccccc1)C(=O)NCC(=O)NCCOCC(=O)N[C@H](CCCCN)C(N)=O)C(C)C`, the IC50 is > 30000 nM. The figure for `CC(=O)N[C@H]1CCSC[C@@H](C(=O)N[C@@H](Cc2ccc(OCCN)cc2)C(=O)N[C@@H](Cc2ccc3ccccc3c2)C(=O)N[C@@](C)(CCCCN)C(=O)N[C@@H](CCC(=O)O)C(=O)N[C@@H](CC(N)=O)C(=O)NCC(N)=O)NC(=O)[C@H](CCC(N)=O)NC(=O)[C@@H]2Cc3c([nH]c4ccccc34)CN2C(=O)[C@H]([C@@H](C)O)NC(=O)[C@H](CCC(N)=O)NC1=O` is 100 to 1000 nM; for `CC(=O)N[C@@H](CS)C(=O)N[C@@H](CCC(N)=O)C(=O)N[C@H](C(=O)N[C@@H](Cc1c[nH]c2ccccc12)C(=O)N[C@@H](CCC(N)=O)C(=O)N[C@@H](CS)C(=O)N[C@@H](Cc1ccc(O)cc1)C(=O)N[C@@H](Cc1c[nH]c2ccccc12)C(=O)N[C@@H](CC(C)C)C(=O)N[C@@H](CCC(=O)O)C(=O)N[C@@H](CC(N)=O)C(=O)NCC(N)=O)[C@@H](C)O` it is < 500 nM; for `CC(=O)N[C@@H](CS)C(=O)N[C@@H](CCCCNC(=O)COCC(=O)NCCCC[C@H](NC(=O)[C@H](CS)NC(C)=O)C(=O)N[C@@H](CC(=O)O)C(=O)N[C@@H](Cc1c[nH]c2ccccc12)C(=O)N[C@H](C(=O)N[C@@H](CS)C(=O)N[C@@H](Cc1ccc(O)cc1)C(=O)N[C@@H](Cc1c[nH]c2ccccc12)C(=O)N[C@@H](Cc1cnc[nH]1)C(=O)N[C@H](C(=O)N[C@@H](Cc1ccccc1)C(=O)NCC(=O)O)[C@@H](C)O)C(C)C)C(=O)N[C@@H](CC(=O)O)C(=O)N[C@@H](Cc1c[nH]c2ccccc12)C(=O)N[C@H](C(=O)N[C@@H](CS)C(=O)N[C@@H](Cc1ccc(O)cc1)C(=O)N[C@@H](Cc1c[nH]c2ccccc12)C(=O)N[C@@H](Cc1cnc[nH]1)C(=O)N[C@H](C(=O)N[C@@H](Cc1ccccc1)C(=O)NCC(=O)O)[C@@H](C)O)C(C)C` it is > 10000 nM. Next, `CC(=O)N[C@@H](CS)C(=O)N[C@@H](CCC(N)=O)C(=O)N[C@H](C(=O)N[C@@H](CC(N)=O)C(=O)N[C@@H](CCC(N)=O)C(=O)N[C@@H](CS)C(=O)N[C@@H](Cc1ccc(O)cc1)C(=O)N[C@@H](Cc1c[nH]c2ccccc12)C(=O)N[C@@H](CCC(C)C)C(=O)N[C@@H](CCC(=O)O)C(=O)N[C@@H](CC(N)=O)C(=O)NCC(N)=O)[C@@H](C)O` (Ac-CQTNQCYW[hLeu]ENG-NH2): > 10000 nM. The figure for `CC(=O)NCCCC[C@H](NC(=O)[C@](C)(CCCCN)NC(=O)NC(=O)[C@H](Cc1ccc(OCCN)cc1)NC(=O)[C@@H]1CSCC[C@H](NC(C)=O)C(=O)N[C@@H](CCC(N)=O)C(=O)N[C@@H]([C@@H](C)O)C(=O)N[C@@H](Cc2c[nH]c3ccccc23)C(=O)N[C@@H](CCC(N)=O)C(=O)N1)C(=O)N[C@@H](CC(N)=O)C(=O)NCC(N)=O` is > 3000 nM.

Broadly, the IC50 is the concentration needed to halve the response being measured.

The values are drawn from ChEMBL document CHEMBL4417631, “Oral peptide inhibitors of interleukin-23 receptor and their use to treat inflammatory bowel diseases” (2017).
